Biological target: T1, Cyclin-dependent kinase 2 (CDK2) (Homo sapiens, UniProt P24941)
T1 construct: Full-length human CDK2, GST-N-terminal tagged fusion protein
Assay: pulldown of purified GST-CDK2 with HHT-conjugated beads (free HHT competes in lysate pulldown); DARTS in HEK293 lysate; CDK2/Cyclin A2 kinase assay inhibited at […] HHT
Assay type: binding
Text: Thus, hydrogen-bonds with T47, R50 and R150 appear critical

COC(=O)C[C@](O)(CCCC(C)(C)O)C(=O)O[C@@H]1C(OC)=C[C@]23CCCN2CCc2cc4c(cc2[C@H]13)OCO4 [HHT, homoharringtonine]
pulldown of purified GST-CDK2 with HHT-conjugated beads (free HHT competes in ly): interaction between HHT and CDK2-3As was abolished (Fig. 1G). Thus, hydrogen-bonds with T47, R50 and R150 appear critical
